{
  "source": "patent US11034935B2",
  "about": "“Liver organoid, uses thereof and culture method for obtaining them” (Koninklijke Nederlandse Akademie van Wetenschappen, priority 2010, dated 2021)",
  "molecules": {"B1": {"name": "R-spondin1: Wnt agonist, secreted protein of the R-spondin family; Lgr5 ligand (protein, UniProt Q2MKA7 21-263, looked up)", "R-spondin-1": "SRGIKGKRQRRISAEGSQACAKGCELCSEVNGCLKCSPKLFILLERNDIRQVGVCLPSCPPGYFDARNPDMNKCIKCKIEHCEACFSHNFCTKCKEGLYLHKGRCYPACPEGSSAANGTMECSSPAQCEMSEWSPWGPCSKKQQLCGFRRGSEERTRRVLHAPVGDHAACSDTKETRRCTVRRVPCPEGQKRRKGGQGRRENANRNLARKESKEAGAGSRRRKGQQQQQQQGTVGPLTSAGPA"}},
  "key": {"[1]": {"system": "human biliary-derived cultures", "test": "Expansion of human biliary-derived liver cultures", "format": "cell-based", "conditions": "500 uM added to expansion medium (ERFHNic and ENRWFHNic)"}, "[2]": {"system": "liver organoid cultures", "test": "Hepatocyte differentiation of liver organoid cultures by added compounds, RT-PCR of hepatocyte markers", "conditions": "titration, hepatocyte marker expression 7 days"}, "[3]": {"system": "Lgr5", "conditions": "Lgr5-LacZ knockin mice; for Lgr5 reporter expression in the liver: 0.8 ml/kg injection"}, "[4]": {"system": "Wnt signalling", "test": "Wnt signalling reporter (LacZ) in liver of Axin2-LacZ mice", "conditions": "after injection"}},
  "note": "Like-named read-outs stand apart in the source and are kept apart here.",
  "data": [
    {"molecule": "Cc1cccc(-c2nn(C(=S)Nc3ccccc3)cc2-c2ccnc3ccccc23)n1", "note": "[A83-01, 3-(6-Methyl-2-pyridinyl)-N-phenyl-4-(4-quinolinyl)-1H-pyrazole-1-carbothioamide]", "values": [
      {"measurement": "expansion of human biliary-derived cultures", "setting": "[1]", "value": "able to expand human biliary-derived cultures"}
    ]},
    {"molecule": "C[C@H](NC(=O)Cc1cc(F)cc(F)c1)C(=O)N[C@H](C(=O)OC(C)(C)C)c1ccccc1", "note": "[DAPT]", "values": [
      {"measurement": "maximal concentration efficiency", "setting": "[2]", "value": 10, "unit": "µM"}
    ]},
    {"molecule": "ClC(Cl)(Cl)Cl", "note": "[CC14, carbon tetrachloride]", "values": [
      {"measurement": "time of peak Lgr5 reporter expression after injury", "setting": "[3]", "value": 6.5, "unit": "days"},
      {"measurement": "Lgr5 reporter expression in the liver", "setting": "[3]", "value": "induces Lgr5 expression in the liver at sites of active regeneration"},
      {"measurement": "Lgr5 reporter expression in the liver", "setting": "[3]; listed as CCL4", "value": "upregulation of Lgr5"},
      {"measurement": "Wnt signalling in the liver", "setting": "[4]; listed as CCL4", "value": "Wnt signalling is activated"}
    ]},
    {"molecule": "B1", "values": [
      {"measurement": "Wnt signalling in the liver", "setting": "[4]", "value": "liver cells are responsive to Wnt stimulation"},
      {"measurement": "Wnt signalling in the liver", "setting": "[4]; listed as R-spondin", "value": "upregulation of Wnt signalling expression in the liver ducts"}
    ]}
  ]
}
